Usually IC50 stands for the midpoint of a concentration-inhibition curve.

This is an account of results in patent US12655106B2 (Eikonizo Therapeutics, Inc., priority 2021, dated 2026).

The target of one assay is T1, Full length Human HDAC8 (Homo sapiens, UniProt Q9BY41).
T1 construct: Full length Human HDAC8; HIS (N); host or cells: baculovirus expression system
T1 sequence (Q9BY41 1-377): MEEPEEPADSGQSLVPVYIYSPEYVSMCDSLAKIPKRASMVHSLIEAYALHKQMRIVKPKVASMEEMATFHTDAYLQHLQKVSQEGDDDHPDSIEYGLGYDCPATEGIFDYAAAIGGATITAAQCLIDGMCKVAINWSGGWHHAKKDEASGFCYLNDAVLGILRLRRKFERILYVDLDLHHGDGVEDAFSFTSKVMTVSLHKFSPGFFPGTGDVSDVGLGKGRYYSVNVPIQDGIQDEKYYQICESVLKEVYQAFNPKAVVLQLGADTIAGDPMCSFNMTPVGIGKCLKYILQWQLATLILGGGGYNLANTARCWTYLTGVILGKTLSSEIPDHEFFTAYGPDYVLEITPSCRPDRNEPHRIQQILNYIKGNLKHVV
As to the kind of experiment: Caliper endpoint assay for HDAC enzymatic activity (HDAC8). To be noted: in vitro enzymatic, 30 min pre-incubation, 1 μM substrate peptide. It is filed as biochemical.

For a further assay, the target named is T2, Full length Human HDAC6 (Homo sapiens, UniProt Q9UBN7).
T2 construct: Full length Human HDAC6; FLAG (C); host or cells: baculovirus expression system
T2 sequence (Q9UBN7 1-1215): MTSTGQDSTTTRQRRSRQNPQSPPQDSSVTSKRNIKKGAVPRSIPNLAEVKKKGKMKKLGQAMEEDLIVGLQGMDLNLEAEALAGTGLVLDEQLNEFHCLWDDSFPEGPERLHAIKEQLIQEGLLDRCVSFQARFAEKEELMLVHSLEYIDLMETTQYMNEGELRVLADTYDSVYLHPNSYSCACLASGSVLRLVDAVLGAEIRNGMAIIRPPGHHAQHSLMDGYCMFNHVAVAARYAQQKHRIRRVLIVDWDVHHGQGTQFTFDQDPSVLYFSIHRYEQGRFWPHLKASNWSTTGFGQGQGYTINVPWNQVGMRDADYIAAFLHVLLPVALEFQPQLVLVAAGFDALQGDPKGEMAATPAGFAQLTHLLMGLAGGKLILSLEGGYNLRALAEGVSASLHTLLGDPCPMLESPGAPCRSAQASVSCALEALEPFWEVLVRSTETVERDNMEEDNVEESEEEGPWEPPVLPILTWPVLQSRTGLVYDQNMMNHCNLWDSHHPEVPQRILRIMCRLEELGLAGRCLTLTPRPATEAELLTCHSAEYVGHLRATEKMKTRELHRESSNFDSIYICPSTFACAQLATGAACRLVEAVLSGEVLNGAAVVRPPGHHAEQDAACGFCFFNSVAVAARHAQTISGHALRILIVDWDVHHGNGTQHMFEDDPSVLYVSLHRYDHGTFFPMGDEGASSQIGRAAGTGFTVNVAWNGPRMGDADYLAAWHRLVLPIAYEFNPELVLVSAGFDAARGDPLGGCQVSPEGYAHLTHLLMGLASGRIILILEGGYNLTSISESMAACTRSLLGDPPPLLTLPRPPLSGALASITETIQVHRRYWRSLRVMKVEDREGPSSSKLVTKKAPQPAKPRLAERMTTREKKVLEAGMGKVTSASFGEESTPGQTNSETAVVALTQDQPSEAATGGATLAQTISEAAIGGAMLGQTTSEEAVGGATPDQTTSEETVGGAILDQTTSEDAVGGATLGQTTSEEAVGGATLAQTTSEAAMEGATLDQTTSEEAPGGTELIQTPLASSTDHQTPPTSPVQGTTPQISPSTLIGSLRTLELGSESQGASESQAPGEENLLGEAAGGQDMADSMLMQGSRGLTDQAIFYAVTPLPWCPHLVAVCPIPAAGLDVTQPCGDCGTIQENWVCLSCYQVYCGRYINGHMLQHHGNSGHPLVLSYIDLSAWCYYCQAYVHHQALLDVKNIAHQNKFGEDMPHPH
As to the kind of experiment: Caliper endpoint assay for HDAC enzymatic activity (HDAC6). It is filed as biochemical. The settings on record: for IC50: in vitro enzymatic, Caliper endpoint assay, 30 min pre-incubation, 1 μM substrate peptide; for Selectivity (6 v 8): ratio of HDAC8 IC50/HDAC6 IC50.

For the compound `CC[C@@H](c1ccccc1)N1CCc2cc(C(=O)NO)cc(F)c2C1` [Compound 31], the values for the half-maximal inhibitory concentration (IC50) on Full length Human HDAC8 and at Full length Human HDAC6 were 1000 to 10000 nM and 1 to 100 nM, respectively.

Take `C[C@@H]1CC[C@H]2c3c(F)cc(C(=O)NO)cc3CCN12` (single isomer, unassigned) [Compound 158]: the IC50 is 1000 to 10000 nM against Full length Human HDAC8 and 1 to 100 nM against Full length Human HDAC6.

As to `C[C@H]1CC[C@@H]2c3c(F)cc(C(=O)NO)cc3CCN21` (single isomer, unassigned) [Compound 159], the figures for the IC50 on Full length Human HDAC8 and at Full length Human HDAC6 were 1000 to 10000 nM and 100 to 1000 nM, respectively.

With `O=C(NO)c1ccc2c(c1)CN1CCCC[C@@H]1C2` [Compound 143], the IC50 against Full length Human HDAC8 lay within 1000 to 10000 nM. For the same compound, on Full length Human HDAC6, the IC50 lay within 100 to 1000 nM and the “Selectivity (6 v 8)” value is reported as “III (III: >10-100)”.

For `CC[C@@H]1N(Cc2ccc(C(=O)NO)cc2F)CC12CCCC2` (single isomer, unassigned) [Compound 168], the IC50 at Full length Human HDAC8 lay within 1000 to 10000 nM; on Full length Human HDAC6, 100 to 1000 nM.

Take `CN1CC2CC(C1)C2CN1CCc2cc(C(=O)NO)cc(F)c2C1` (stereo not drawn) [Compound 463, 8-fluoro-2-[(3-methyl-3-azabicyclo[3.1.1]heptan-6-yl)methyl]-3,4-dihydro-1H-isoquinoline-6-carbohydroxamic acid]: the IC50 against Full length Human HDAC8 is 10000 to 100000 nM; against Full length Human HDAC6, 1 to 100 nM. Besides, the “Selectivity (6 v 8)” value at Full length Human HDAC6 was “IV (IV: >100-1000)”.

As to `O=C(NO)c1ccc(CN2C[C@H]3CC[C@@H]2CO3)c(F)c1` [Compound 173], the IC50 against Full length Human HDAC8 lay in the range of 1000 to 10000 nM; on Full length Human HDAC6, 1 to 100 nM.

At Full length Human HDAC8, `O=C(NO)c1cc(F)c2c(c1)CCN([C@@H]1CCOC3(C1)CN(C1CC1)C3)C2` (single isomer, unassigned) [Compound 449] showed an IC50 of 10000 to 100000 nM. In addition, at Full length Human HDAC6, the concentration for half-maximal inhibition (IC50) is 1000 to 10000 nM and the “Selectivity (6 v 8)” value is listed as “III (III: >10-100)”.

For the compound `O=C(NO)c1cc(F)c2c(c1)CCN(C1CC3(CCOC3)C1)C2` (single isomer, unassigned) [Compound 189, 8-fluoro-N-hydroxy-2-(6-oxaspiro[3.4]octan-2-yl)-1,2,3,4-tetrahydroisoquinoline-6-carboxamide], the IC50 against Full length Human HDAC8 lay within 10000 to 100000 nM; against Full length Human HDAC6 it was 1 to 100 nM. Moreover, the “Selectivity (6 v 8)” value on Full length Human HDAC6 is recorded as “IV (IV: >100-1000)”.

Compound `CC[C@H]1Cc2c(F)cc(C(=O)NO)cc2CN1C[C@]12C[C@H](CO1)N(C)C2` (single isomer, unassigned) [Compound 552] came in with a 50% inhibitory concentration (IC50) against Full length Human HDAC8 of 10000 to 100000 nM. At Full length Human HDAC6, the IC50 lay within 1 to 100 nM and the “Selectivity (6 v 8)” value is “IV (IV: >100-1000)”.

On to `CC[C@H]1Cc2c(F)cc(C(=O)NO)cc2CN1CC1COC1` (single isomer, unassigned) [Compound 216], for which the IC50 on Full length Human HDAC8 is over 100000 nM. Moreover, at Full length Human HDAC6, the IC50 lay in the range of 1 to 100 nM and the “Selectivity (6 v 8)” value was “V (V: >1000)”.

For `O=C(NO)c1cc(F)c2c(c1)CCN(CC13CCC(CC1)C(=O)N3)C2` [Compound 461, 8-fluoro-2-[(3-oxo-2-azabicyclo[2.2.2]octan-1-yl)methyl]-3,4-dihydro-1H-isoquinoline-6-carbohydroxamic acid], the IC50 against Full length Human HDAC8 fell in the range of 1000 to 10000 nM; against Full length Human HDAC6, 1 to 100 nM. Moreover, on Full length Human HDAC6, the “Selectivity (6 v 8)” value was “V (V: >1000)”.

On Full length Human HDAC8, `O=C(NO)c1cc(F)c2c(c1)CCN(CC1CCC3(CC1)CNC3)C2` [Compound 464, 2-(2-azaspiro[3.5]nonan-7-ylmethyl)-8-fluoro-3,4-dihydro-1H-isoquinoline-6-carbohydroxamic acid] displayed an IC50 of 10000 to 100000 nM. At Full length Human HDAC6, the IC50 was in the range of 1 to 100 nM and the “Selectivity (6 v 8)” value is on record as “V (V: >1000)”.

`CC[C@H]1Cc2c(F)cc(C(=O)NO)cc2CN1CC12CC(C1)N(C)C2` (single isomer, unassigned) [Compound 535] yielded an IC50 at Full length Human HDAC8 of 1000 to 10000 nM. Also, on Full length Human HDAC6, the IC50 was in the range of 1 to 100 nM and the “Selectivity (6 v 8)” value is reported as “IV (IV: >100-1000)”.

Regarding `CC[C@@H]1Cc2c(F)cc(C(=O)NO)cc2CN1C1CC2(CCN(C3CC3)CC2)C1` (single isomer, unassigned) [Compound 598], the IC50 on Full length Human HDAC8 lay within 10000 to 100000 nM; at Full length Human HDAC6 it was 100 to 1000 nM. The “Selectivity (6 v 8)” value at Full length Human HDAC6 is recorded as “IV (IV: >100-1000)”.

In the case of `O=C(NO)c1cc(F)c2c(c1)CCN([C@H]1CCCC3(CCC3)C1)C2` (single isomer, unassigned) [Compound 195], the IC50 against Full length Human HDAC8 is 10000 to 100000 nM; against Full length Human HDAC6, 1 to 100 nM. The “Selectivity (6 v 8)” value at Full length Human HDAC6 was “IV (IV: >100-1000)”.

Turning to `O=C(NO)c1cc(F)c2c(c1)CCN(CC1CC3(CCN(C4CC4)CC3)C1)C2` [Compound 470, 2-[(7-cyclopropyl-7-azaspiro[3.5]nonan-2-yl)methyl]-8-fluoro-3,4-dihydro-1H-isoquinoline-6-carbohydroxamic acid], the IC50 at Full length Human HDAC8 is 10000 to 100000 nM; on Full length Human HDAC6, 1 to 100 nM. Also, the “Selectivity (6 v 8)” value on Full length Human HDAC6 is “IV (IV: >100-1000)”.

Take `CN1CC2(CC(N3CCc4cc(C(=O)NO)cc(F)c4C3)C2)C1` [Compound 290, 8-fluoro-N-hydroxy-2-(2-methyl-2-azaspiro[3.3]heptan-6-yl)-1,2,3,4-tetrahydroisoquinoline-6-carboxamide]: the IC50 on Full length Human HDAC8 was 1000 to 10000 nM; at Full length Human HDAC6, 1 to 100 nM. At Full length Human HDAC6, the “Selectivity (6 v 8)” value is on record as “IV (IV: >100-1000)”.

The compound `CN1CCC[C@]2(C1)C[C@H](N1CCc3cc(C(=O)NO)cc(F)c3C1)C2` (single isomer, unassigned) [Compound 344, 8-fluoro-N-hydroxy-2-((2s,4r)-6-methyl-6-azaspiro[3.5]nonan-2-yl)-1,2,3,4-tetrahydroisoquinoline-6-carboxamide] displayed an IC50 against Full length Human HDAC8 of 10000 to 100000 nM. Further, on Full length Human HDAC6, the IC50 was 1 to 100 nM and the “Selectivity (6 v 8)” value was “IV (IV: >100-1000)”.

`O=C(NO)c1ccc2c(c1)CN1CCCC[C@H]1C2` [Compound 144]: on Full length Human HDAC8, the IC50 lay within 10000 to 100000 nM. Also, at Full length Human HDAC6, the IC50 lay in the range of 100 to 1000 nM and the “Selectivity (6 v 8)” value is “III (III: >10-100)”.

With `CN1CC2(C[C@@H](N3CCc4cc(C(=O)NO)cc(F)c4C3)CCO2)C1` (single isomer, unassigned) [Compound 451], the IC50 on Full length Human HDAC8 lay within 1000 to 10000 nM; at Full length Human HDAC6 it was 1 to 100 nM. Further, the “Selectivity (6 v 8)” value at Full length Human HDAC6 is “IV (IV: >100-1000)”.

Compound `CC[C@H]1Cc2c(F)cc(C(=O)NO)cc2CN1CC1CC2CCC(C1)N2C` (single isomer, unassigned) [Compound 570] came in with an IC50 against Full length Human HDAC8 of 10000 to 100000 nM. Besides, at Full length Human HDAC6, the IC50 is 1 to 100 nM and the “Selectivity (6 v 8)” value is given as “V (V: >1000)”.

For `CC[C@H]1Cc2c(F)cc(C(=O)NO)cc2CN1C1CC2(CCN(C3CC3)CC2)C1` (single isomer, unassigned) [Compound 599], the IC50 on Full length Human HDAC8 is 10000 to 100000 nM. In addition, at Full length Human HDAC6, the IC50 lay within 100 to 1000 nM and the “Selectivity (6 v 8)” value is recorded as “IV (IV: >100-1000)”.

In the case of `CC[C@H]1N(Cc2ccc(C(=O)NO)cc2F)CC12CCCC2` [Compound 169], the IC50 is 1000 to 10000 nM at Full length Human HDAC8 and 1 to 100 nM at Full length Human HDAC6.
